Assays:
Type in all cases: cell-based
MDCK cell nucleus = assay: IP3 generation in the MDCK cell nucleus with nuclear-localized probe; conditions: 100 μM ATP stimulation, probe with nuclear localization sequence in nucleus, FIG. 4
Text: The probe was linked with the nuclear localization sequence of SEQ ID NO: 4 at the C terminal thereof, and expressed in MDCK cell.

[1] = test system: purine receptor of the MDCK cell; assay: ATP-dependent IP3 generation in MDCK cells visualized with the probe
Protocol: FIG. 2 is visualization of ATP-dependent IP3 generation in MDCK cells using the probe of this invention. (a), 100 μM ATP; (b), […]; and (c), 1 μM ATP.
(§1) cDNA encoding a probe for IP3 detection and quantification (FIG. 1) was prepared by a genetic engineering method, and introduced into MDCK cell. Expression of the probe in the cytoplasm was confirmed since fluorescence was observed from the cells with a fluorescence microscope.
An increase in fluorescence intensity ratio (CFP/YFP) was observed by stimulating a purine receptor of the MDCK cell as obtained in Example 1 with 100 μM ATP (FIG. 2a).

[2] = target: T1, probe for IP3 detection and quantification expressed in MDCK cell (Homo sapiens, UniProt Q14643); assay: IP3 microinjection into MDCK cell expressing the FRET probe; conditions: each introduction of a small amount of IP3 by microinjection
T1 construct: a region from 224th amino acid to 579th amino acid of the type 1 IP3 receptor; expressed in transfected cells; host or cells: MDCK cells
Protocol: as §1
Into the MDCK cell expressing the probe as obtained in Example 1, IP3 was introduced by a microinjection method.

[3] = test system: neuron prepared from hippocampus of a rat embryo; assay: IP3 kinetics in neuron expressing the probe on glutamate stimulation; conditions: 20 μM glutamate stimulation, cell body and dendrites, FIG. 3
Text: The probe was expressed in a neuron prepared from hippocampus of a rat embryo, and IP3 kinetics in the neuron was observed.

T1 sequence (Q14643 224-579): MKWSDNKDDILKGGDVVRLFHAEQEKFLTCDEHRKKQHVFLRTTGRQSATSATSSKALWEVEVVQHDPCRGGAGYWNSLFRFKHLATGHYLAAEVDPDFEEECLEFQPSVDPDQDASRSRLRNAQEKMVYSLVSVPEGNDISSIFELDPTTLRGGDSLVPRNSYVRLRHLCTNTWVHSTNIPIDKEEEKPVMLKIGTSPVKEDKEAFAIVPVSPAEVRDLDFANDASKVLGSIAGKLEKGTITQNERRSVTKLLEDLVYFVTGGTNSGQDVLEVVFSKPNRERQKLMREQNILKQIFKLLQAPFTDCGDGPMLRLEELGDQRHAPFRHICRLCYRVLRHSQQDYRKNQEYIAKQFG

Nc1ncnc2c1ncn2[C@@H]1O[C@H](COP(=O)(O)OP(=O)(O)OP(=O)(O)O)[C@@H](O)[C@H]1O [ATP]
IP3 concentration (MDCK cell nucleus): temporally increased
response of the probe ([1]; 1 μM ATP stimulation, FIG. 2c): a response of the probe was also observed depend on ATP concentration
response of the probe ([1]; 10 μM ATP stimulation, FIG. 2b): a response of the probe was also observed depend on ATP concentration
fluorescence intensity ratio (CFP/YFP) ([1]; 100 μM ATP stimulation, FIG. 2a): increase

O=P(O)(O)O[C@@H]1[C@H](O)[C@H](O)[C@@H](OP(=O)(O)O)[C@H](OP(=O)(O)O)[C@H]1O [IP3, Inositol-1,4,5-trisphosphate]
CFP/YFP fluorescence intensity ratio [2]: stepwise increased and saturated soon

N[C@@H](CCC(=O)O)C(=O)O [glutamate]
IP3 concentration [3]: temporally increased in not only the cell body but also the dendrites
